Assay results reported in patent publication US20170348253A1, “Treatment of Drug-Resistant Microbial Infections” (NovaBiotics Limited, priority 2016, published 2017).

What was measured:
[1] = tested on: P. aeruginosa strain LES431; test: Neutropenic mouse thigh model of infection; format: in vivo, Pseudomonas aeruginosa; settings: for Log10 reduction in cfu/g: neutropoenic mice, thigh, 24 h post-treatment, compared with vehicle control
Method: Mouse thigh infection model experiments were conducted at Eurofins Panlabs, (Taipei, Taiwan). Mice were rendered neutropoenic with cyclophosphamide prior to infection. They were separated into groups of 5 animals per treatment. […] Animals were sacrificed 25 h post infection (24 h post-treatment) and thigh weights and cfu/g of tissue were calculated and recorded.

[2] = tested on: Staphylococcus aureus; test: Aberdeen clinical study: sputum microbiology, resistance profile of predominant pathogen; format: in vivo; set-up: key: MRSA = Methicillin-resistant Staphylococcus aureus; MSSA = Methicillin-sensitive Staphylococcus aureus; PR = pan-resistant; S = sensitive; Cip^R = ciprofloxacin-resistant; Cip^S = ciprofloxacin sensitive; settings: Patient 1, stable CF lung disease, oral 450 mg once daily increased weekly to four times daily; pre trial MRSA
Method: (§1) Patients≧18 years of age, weighing>50 kg with stable CF lung disease were commenced on oral cysteamine bitartrate (Cystagon®) 450 mg once daily, increased weekly to 450 mg four times daily. Serial plasma cysteamine concentrations were measured for 24 h after the first dose. Participants were reviewed every week for 6 weeks, except at 4 weeks. Plasma cysteamine concentrations were measured 8 h after dosing when reviewed at 1, 2 and 3 weeks and 6 h after dosing when reviewed at 5 weeks. Sputum cysteamine concentration was also quantified at the 5-week assessment. Routine monitoring of clinical microbiology and reporting of speciation and resistance profile of major colonising microorganisms from patients continued as normal, prior to, during where necessary and after the trial by the hospital microbiology laboratory.

[3] = tested on: P. aeruginosa; test: as above; format: in vivo, Pseudomonas aeruginosa; settings: oral 450 mg once daily increased weekly to four times daily
Method: as §1

In the case of `NCCS` [Cysteamine, cysteamine], the “Effect of cysteamine on the activity of ciprofloxacin” value ([1]; neutropenic mouse thigh model, cysteamine 1.25 mg/kg with ciprofloxacin 15 mg/kg) is reported as “chemopotentiates the activity of ciprofloxacin” and the “Log10 reduction in cfu/g” value ([1]; 1.25 mg/kg i.v.) is reported as 0.74 log10 cfu/g.
With `NCCS.O=C(O)C(O)C(O)C(=O)O` (stereo not shown) [cysteamine bitartrate] the “Post trial microbiology (predominant pathogen in sputum)” value (shortened to “Post trial microbiology”) [2] was “MSSA”, the “Post trial microbiology” value ([3]; Patient 2, stable CF lung disease, pre trial PR P. aeruginosa) was “S P. aeruginosa” and the “Post trial microbiology” value ([3]; Patient 3, stable CF lung disease, pre trial Cip^R P. aeruginosa) was “Cip^S P. aeruginosa”.
Colistin was tested, and the “Log10 reduction in cfu/g” value ([1]; 5 mg/kg SC) was 5.02 log10 cfu/g.
With `O=C(O)c1cn(C2CC2)c2cc(N3CCNCC3)c(F)cc2c1=O` [Ciprofloxacin] the “Log10 reduction in cfu/g” value ([1]; 15 mg/kg i.v.) was 2.02 log10 cfu/g.
